According to ChEMBL document CHEMBL2311459, “Naphthyridinone (NTD) integrase inhibitors: N1 protio and methyl combination substituent effects with C3 amide groups” (Bioorg Med Chem Lett, 2013):

What was measured:
[1] = target: Human immunodeficiency virus type 1 integrase (Human immunodeficiency virus 1, UniProt Q7ZJM1); experiment: Inhibition of HIV1 integrase strand transfer activity
[2] = tested on: Human immunodeficiency virus; experiment: Antiviral activity against HIV in presence of 40 mg/mL of purified human serum albumin; assay type: functional, organism-based; details: Human immunodeficiency virus 1
[3] = tested on: Human immunodeficiency virus; experiment: Antiviral activity against HIV; assay type: functional, organism-based; details: Human immunodeficiency virus 1
[4] = Therapeutic index, ratio of cytotoxicity against human MT4 cells to antiviral activity against HIV; assay type: cell-based; details: read-out: TI
[5] = tested on: Human immunodeficiency virus; experiment: Antiviral activity against HIV infected in human MT4 cells; assay type: functional, organism-based; details: Human immunodeficiency virus 1, MT4
[6] = Ratio of plasma concentration in CD rat at 1 mg/kg, iv and 5 mg/kg, po after 24 hrs to IC50 for HIV in presence of 40 mg/mL of purified human serum albumin; assay type: ADME, organism-based; details: in vivo
[7] = AUC in CD rat at 5 mg/kg, po; assay type: ADME, organism-based; design: dose 5 mg/kg, route oral; details: plasma
[8] = Plasma clearance in CD rat at 1 mg/kg, iv and 5 mg/kg, po; assay type: ADME, organism-based
[9] = AUC in dog at 5 mg/kg, po; assay type: ADME, organism-based, Canis lupus familiaris; design: dose 5 mg/kg, route oral; details: plasma
[10] = Ratio of plasma concentration in dog at 1 mg/kg, iv and 5 mg/kg, po after 24 hrs to IC50 for HIV in presence of 40 mg/mL of purified human serum albumin; assay type: ADME, organism-based; details: in vivo
[11] = Half life in cynomolgus monkey at 1 mg/kg, iv and 5 mg/kg, po; assay type: ADME, organism-based, Macaca fascicularis; details: in vivo
[12] = Plasma clearance in cynomolgus monkey at 1 mg/kg, iv and 5 mg/kg, po; assay type: ADME, organism-based, Macaca fascicularis
[13] = Ratio of plasma concentration in cynomolgus monkey at 1 mg/kg, iv and 5 mg/kg, po after 24 hrs to IC50 for HIV in presence of 40 mg/mL of purified human serum albumin; assay type: ADME, organism-based; details: in vivo
[14] = Half life in dog at 1 mg/kg, iv and 5 mg/kg, po; assay type: ADME, organism-based, Canis lupus familiaris; details: in vivo
[15] = AUC (0 to 24 hrs) in cynomolgus monkey at 5 mg/kg, po; assay type: ADME, organism-based, Macaca fascicularis; design: time < 24 hr, dose 5 mg/kg, route oral; details: plasma
[16] = Plasma clearance in dog at 1 mg/kg, iv and 5 mg/kg, po; assay type: ADME, organism-based, Canis lupus familiaris
[17] = Half life in CD rat at 1 mg/kg, iv and 5 mg/kg, po; assay type: ADME, organism-based; details: in vivo

Chain of Human immunodeficiency virus type 1 integrase (Q7ZJM1 whole entry): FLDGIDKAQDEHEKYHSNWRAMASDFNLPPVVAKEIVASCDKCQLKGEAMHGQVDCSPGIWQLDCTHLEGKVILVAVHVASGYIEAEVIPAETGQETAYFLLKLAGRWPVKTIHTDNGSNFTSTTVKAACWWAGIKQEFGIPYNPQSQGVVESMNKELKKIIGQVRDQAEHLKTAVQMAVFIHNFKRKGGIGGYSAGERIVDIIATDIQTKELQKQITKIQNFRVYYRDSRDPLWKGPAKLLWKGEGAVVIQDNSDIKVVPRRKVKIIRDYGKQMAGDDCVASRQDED

Row | IC50 [1] [nM] | IC50 [2] [nM] | IC50 [3] [nM] | SMILES | other results
1 | 4 | 650 | 2 | CCNC(=O)c1c(O)c2ncc(Cc3ccc(F)cc3)cc2n(C)c1=O | –
2 | 11 | 41 | 4 | O=C(NCCCO)c1c(O)c2ncc(Cc3ccc(F)cc3)cc2[nH]c1=O | –
3 | 5 | 256 | 5 | CSCCNC(=O)c1c(O)c2ncc(Cc3ccc(F)cc3)cc2[nH]c1=O | –
4 | 23 | 109 | 39 | O=C(NCCCN1CCCC1)c1c(O)c2ncc(Cc3ccc(F)cc3)cc2[nH]c1=O | –
5 | 6 | 282 | 7 | C[C@@H](O)CNC(=O)c1c(O)c2ncc(Cc3ccc(F)cc3)cc2[nH]c1=O | –
6 | 4 | 18 | 3 | C[C@H](CO)CNC(=O)c1c(O)c2ncc(Cc3ccc(F)cc3)cc2n(C)c1=O | –
7 | 4 | 31 | 5 | O=C(NCCCN1CCCC1=O)c1c(O)c2ncc(Cc3ccc(F)cc3)cc2[nH]c1=O | –
8 | 8 | 37 | 6 | O=C(NCCCN1CCOCC1)c1c(O)c2ncc(Cc3ccc(F)cc3)cc2[nH]c1=O | –
9 | 9 | 190 | 8 | CC(C)OCCCNC(=O)c1c(O)c2ncc(Cc3ccc(F)cc3)cc2[nH]c1=O | –
10 | 11 | 110 | 28 | CN1CCN(CCCNC(=O)c2c(O)c3ncc(Cc4ccc(F)cc4)cc3[nH]c2=O)CC1 | –
11 | 13 | 23 | 4 | Cn1c(=O)c(C(=O)NCCN2CCOCC2)c(O)c2ncc(Cc3ccc(F)cc3)cc21 | selectivity ratio [4]: 165; IC50 [5]: 64 nM
12 | 5 | 12 | 2 | CC(=O)NCCNC(=O)c1c(O)c2ncc(Cc3ccc(F)cc3)cc2n(C)c1=O | selectivity ratio [4]: 807; IC50 [5]: 22 nM
13 | 3 | 78 | 7 | C[C@H](O)CNC(=O)c1c(O)c2ncc(Cc3ccc(F)cc3)cc2[nH]c1=O | –
14 | 4 | 49 | 9 | CN(CCNC(=O)c1c(O)c2ncc(Cc3ccc(F)cc3)cc2[nH]c1=O)S(C)(=O)=O | –
15 | 6 | 34 | 9 | Cn1c(=O)c(C(=O)NCCCN2CCCC2)c(O)c2ncc(Cc3ccc(F)cc3)cc21 | –
16 | 6 | 28 | 3 | Cn1c(=O)c(C(=O)NC(C)(C)CO)c(O)c2ncc(Cc3ccc(F)cc3)cc21 | –
17 | 45 | – | – | NC(=O)c1c(O)c2ncc(Cc3ccc(F)cc3)cc2[nH]c1=O | –
18 | 2 | 110 | 2 | C[C@H](O)CNC(=O)c1c(O)c2ncc(Cc3ccc(F)cc3)cc2n(C)c1=O | –
19 | 5 | 7 | 1 | CN(CCNC(=O)c1c(O)c2ncc(Cc3ccc(F)cc3)cc2n(C)c1=O)S(C)(=O)=O | selectivity ratio [4]: > 7200; Ratio [6]: 1.7; IC50 [5]: 7 nM; AUC [7]: 5810 ng·h/mL
20 | 9 | 65 | 4 | CCOCCNC(=O)c1c(O)c2ncc(Cc3ccc(F)cc3)cc2[nH]c1=O | –

Row | IC50 [1] [nM] | IC50 [2] [nM] | IC50 [3] [nM] | SMILES | other results
21 | 4 | 19 | 6 | C[C@@H](CO)NC(=O)c1c(O)c2ncc(Cc3ccc(F)cc3)cc2[nH]c1=O | –
22 | 8 | 20 | 2 | Cn1c(=O)c(C(=O)NCCO)c(O)c2ncc(Cc3ccc(F)cc3)cc21 [GSK-364735] | clearance [8]: 3.2 mL/min/kg; selectivity ratio [4]: > 2000; Ratio [6]: 0.3; IC50 [5]: 5 nM; AUC [7]: 22800 ng·h/mL
23 | 7 | 180 | 3 | Cn1c(=O)c(C(=O)NC2(CO)CCCC2)c(O)c2ncc(Cc3ccc(F)cc3)cc21 | –
24 | 4 | 15 | 1 | C[C@@H](CO)NC(=O)c1c(O)c2ncc(Cc3ccc(F)cc3)cc2n(C)c1=O | AUC [9]: 1120 ng·h/mL; Ratio [6]: 2.7; Ratio [10]: 0; AUC [7]: 22600 ng·h/mL
25 | 8 | 11 | 2 | C[C@H](CO)NC(=O)c1c(O)c2ncc(Cc3ccc(F)cc3)cc2n(C)c1=O | selectivity ratio [4]: > 12500; IC50 [5]: 4 nM
26 | 4 | 41 | 4 | CC(C)(CO)CNC(=O)c1c(O)c2ncc(Cc3ccc(F)cc3)cc2[nH]c1=O | –
27 | 5 | 35 | 5 | COCCNC(=O)c1c(O)c2ncc(Cc3ccc(F)cc3)cc2[nH]c1=O | Ratio [6]: 0.1; AUC [7]: 1650 ng·h/mL
28 | 4 | 55 | 1 | CNC(=O)c1c(O)c2ncc(Cc3ccc(F)cc3)cc2n(C)c1=O | half-life [11]: 3.9 h; AUC [9]: 13200 ng·h/mL; clearance [12]: 2 mL/min/kg; Ratio [10]: 0.8; Ratio [13]: 9.2; half-life [14]: 1.6 h; AUC(0-t) at 24 h [15]: 38600 ng·h/mL; clearance [16]: 8.6 mL/min/kg
29 | 5 | 51 | 6 | O=C(NCCO)c1c(O)c2ncc(Cc3ccc(F)cc3)cc2[nH]c1=O | selectivity ratio [4]: > 250; Ratio [6]: 0.8; IC50 [5]: 80 nM; AUC [7]: 3060 ng·h/mL
30 | 9 | 170 | 48 | O=C(NC1CCS(=O)(=O)CC1)c1c(O)c2ncc(Cc3ccc(F)cc3)cc2[nH]c1=O | –
31 | 5 | 9 | 2 | Cn1c(=O)c(C(=O)NCCN2CCNC2=O)c(O)c2ncc(Cc3ccc(F)cc3)cc21 | selectivity ratio [4]: 1620; Ratio [6]: 0; IC50 [5]: 11 nM; AUC [7]: 3550 ng·h/mL
32 | 16 | 15 | 2 | Cn1c(=O)c(C(=O)NCCCN2CCCC2=O)c(O)c2ncc(Cc3ccc(F)cc3)cc21 | –
33 | 7 | 42 | 6 | O=C(NCCN1CCOCC1)c1c(O)c2ncc(Cc3ccc(F)cc3)cc2[nH]c1=O | selectivity ratio [4]: > 250; IC50 [5]: 32 nM
34 | 5 | 40 | 1 | Cn1c(=O)c(C(=O)NCCCO)c(O)c2ncc(Cc3ccc(F)cc3)cc21 | –
35 | 3 | 19 | 2 | CC(C)(CO)NC(=O)c1c(O)c2ncc(Cc3ccc(F)cc3)cc2[nH]c1=O | –
36 | 14 | 172 | 38 | O=C(NCCN1CCCCC1)c1c(O)c2ncc(Cc3ccc(F)cc3)cc2[nH]c1=O | –
37 | 5 | 33 | 7 | C[C@H](CO)NC(=O)c1c(O)c2ncc(Cc3ccc(F)cc3)cc2[nH]c1=O | selectivity ratio [4]: > 400; Ratio [6]: 0; IC50 [5]: 20 nM; AUC [7]: 6370 ng·h/mL
38 | 5 | 2900 | 1 | Cn1c(=O)c(C(=O)NCC(F)F)c(O)c2ncc(Cc3ccc(F)cc3)cc21 | –
39 | 5 | 230 | 8 | CC(C)CCNC(=O)c1c(O)c2ncc(Cc3ccc(F)cc3)cc2[nH]c1=O | –

Row | SMILES | IC50 [1] [nM] | IC50 [2] [nM] | IC50 [3] [nM] | other results
40 | CNC(=O)c1c(O)c2ncc(Cc3ccc(F)cc3)cc2[nH]c1=O | 6 | – | 3 | –
41 | COCCNC(=O)c1c(O)c2ncc(Cc3ccc(F)cc3)cc2n(C)c1=O | 4 | 48 | – | AUC [9]: 1240 ng·h/mL; Ratio [6]: 0.1; Ratio [10]: 0; half-life [17]: 4 h; AUC [7]: 1850 ng·h/mL
